Values after ≈ are worked out from the molar mass of the structure shown.
How the values were obtained:
[1] = test system: human GnRH receptor (hGnRH-R) positive cell line 5C6; assay: GnRH-receptor dependent proliferation assay, 5C6; format: cell-based; settings: 30 min exposure, vital cells vs untreated control = 100%
Description: (§1) The dose-dependent receptor-mediated inhibition of cell proliferation of selected compounds of the invention was investigated.
(§2) To study these effects a human GnRH receptor (hGnRH-R) positive cell line (5C6; Beckers et al., Eur. J. Biochem. 1995, 231: 535-543) and an hGnRH-R negative cell line (LTK^−; ECACC No. 85011432) was used.
(§3) Respective cells were exposed to 1 mL culture medium in 24 well multi-titer-plates (MTPs) with a cell number of 15000 cells per well. The cell number is adjusted in such a way that after 5 days of testing the untreated control cells are still in the exponential growth phase.
(§4) Test compounds are given to the cultured cells after 4 hours of initial growth (adherence) in a volume of 100 μL to yield the final concentrations given in table 2.
(§5) After 30 min of incubation at 37° C. the entire culture medium is sucked off and the cells are washed twice with culture medium without test compounds. After the washing the cells are placed into an incubator (at 37° C., 5% CO2 and 95% atmospheric humidity) and incubated for further 4 days.
(§6) For the determination of the cell number after incubation the cells are detached using trypsin/EDTA and centrifuged. The number of vital cells and the total cell number are counted using a Vi-Cell Analyzer (Beckman Coulter).
(§7) The number of vital cells is analyzed in comparison with untreated control cells (=100%). Only cell groups (respective wells) are considered of which the total cell viability is more than 90%, i.e. inhibition of cell proliferation by unspecific toxicity can be excluded.
(§8) The proliferation status of untreated control cells after 96 hours is set to 100%.

[2] = test system: hGnRH-R negative cell line LTK−; assay: GnRH-receptor dependent proliferation assay, LTK-; format: cell-based; settings: 30 min exposure, vital cells vs untreated control = 100%
Description: as §1, §2, §3, §4, §5, §6, §7, §8

[3] = test system: lung carcinoma cell line NCI-H460; assay: cells; format: cell-based, human; settings: for IC50 NCI-H460: XTT, 45 h incubation
Text: (§9) Selected compounds of the invention were investigated for their antiproliferative activity in a proliferation test on established tumor cell lines.
(§10) The test used determines the cellular dehydrogenase activity and makes possible a determination of the cell vitality and indirectly the cell count.
(§11) The cell lines used are the human cervical carcinoma cell line KB/HeLa (ATCC CCL17), the ovarian adenocarcinoma cell line SKOV-3 (ATCC HTB77), the human glioblastoma cell line SF-268 (NCI-503138) and the lung carcinoma cell line NCI-H460 (NCI-503473). In addition, for the investigation of the cell cycle-specific action of the compounds of the invention, an RKOp27 cell system was used (Schmidt M et al. Oncogene 2000, 19(20): 2423-2429). RKO is a human colon carcinoma cell line (ATCC CRL-2577), in which the cell cycle inhibitor p27^kip1 induced by means of the ecdysone expression system is expressed and can be led to a cell cycle arrest specifically in […]. A nonspecifically acting substance inhibits the proliferation independently of whether the RKO cell is or is not arrested in G1 or G2. Cell cycle-specific substances such as, for example, tubulin inhibitors are, however, only cytotoxic if cells are not arrested and the cell cycle is passed through.
(§12) The adherently growing tumor cell lines KB/HeLa, SKOV-3, SF-268 and NCI-H460 were cultured under standard conditions in an incubator at 37° C., 5% CO2 and 95% atmospheric humidity. On experimental day 1, the cells are detached using trypsin/EDTA and pelleted by centrifugation. Subsequently, the cell pellet is resuspended in the respective culture medium at the corresponding cell count and reacted in a 96-well microtiter plate. The plates are then cultured overnight in the incubator. The test substances are prepared as 1 mg/ml stock solutions in DMSO and diluted to the appropriate concentrations on experimental day 2 using culture medium. The substances in culture medium are then added to the cells and incubated in the incubator for 45 h. As a control, cells which are not treated with test substance are used. For the XTT assay, 1 mg/ml of XTT (sodium 3′-[1-(phenylaminocarbonyl)-3,4-tetrazolium]-bis(4-methoxy-6-nitro)benzenesulfonic acid) is dissolved in RPMI-1640 medium without Phenol Red. Additionally, a 0.383 mg/ml PMS (N-methyldibenzopyrazine methylsulfate) solution in phosphate-buffered saline solution (PBS) is prepared. On experimental day 4, 75 μl/well of XTT-PMS mixture is pipetted onto the cell plates which in the meantime have been incubated with the test substances for 45 h. For this, shortly before use, the XTT solution is mixed with the PMS solution in the ratio 50:1 (vol:vol). The cell plates are then incubated in the incubator for a further 3 h and the optical density (OD490 nm) is determined in a photometer. By means of the OD490 nm determined, the percentage inhibition is calculated relative to the control and plotted semilogarithmically in the form of a concentration-action curve. The IC50 is calculated by means of a regression analysis from the concentration-action curve using the program Graphpad Prism.

[4] = test system: ovarian adenocarcinoma cell line SKOV-3; assay: cells; format: cell-based, human; settings: for IC50 SKOV-3: XTT, 45 h incubation
Text: as §9, §10, §11, §12

[5] = test system: RKOp27 cells (human colon carcinoma cell line RKO), p27kip1 not induced; assay: cells; format: cell-based; settings: for IC50 RKOp27: without expression of p27kip1, XTT, 45 h
Text: as §11, §12
(§13) The assay is carried out in 96-well plates. […] By comparison of the activity on induced and noninduced cells, conclusions on the mechanism of action (cell cycle specificity) of the therapeutics can be drawn. […] cells are inoculated in approximately three-fold higher cell count, since division no longer takes place during the assay in comparison with uninduced cells (20000 cells/well induced, 6250 cells/well not induced). The controls are untreated cells (+/−induction). The induction is carried out with 3 μM muristerone A. On the 1st day, the cells are exposed (+/−muristerone A) and incubated at 37° C. for 24 h. On day 2, the test substance is added (control DMSO) and incubation is continued at 37° C. for a further 45 h before a standard XTT assay is carried out.

[6] = test system: RKOp27 cells (human colon carcinoma cell line RKO), p27kip1 induced; assay: cells; format: cell-based; settings: for IC50 RKOp27 induced: p27kip1 induced with 3 μM muristerone A, XTT, 45 h
Text: as §11, §12, §13

[7] = test system: human cervical carcinoma cell line KB/HeLa; assay: cells; format: cell-based; settings: for IC50 KB/HELA: XTT, 45 h incubation
Text: as §9, §10, §11, §12

[8] = test system: human glioblastoma cell line SF-268; assay: cells; format: cell-based; settings: for IC50 SF-268: XTT, 45 h incubation
Text: as §9, §10, §11, §12

[9] = test system: GnRH receptor positive, human ovarian carcinoma cell line OVCAR-3; assay: OVCAR-3 tumors in nude mice, single i.v. dose; format: in vivo, CD 1 nu/nu nude mice; settings: for Average tumor size day 18: once on day 0, tail vein; for Average tumor size day 0: tail vein, day 0 (baseline before dosing)
Description: 30 CD 1 nu/nu nude mice were inoculated subcutaneously with the GnRH receptor positive, human ovarian carcinoma cell line OVCAR-3 (5 million cells per animal). The experiment was started after formation of solid tumors. 5 animals per dose group were used.
On day 0 of the experiment, the individual tumor volume was determined by palpation and set to 100%. Test compounds were administered subsequently on day 0 of the experiment by injection into the tail vein of the test animals.
A standard volume of 10 ml of 0.9% saline per kg (200 μl per 20 g mouse) containing the test compound in the required concentration was administered once only on day 0 of the experiment.
The tumor size was determined again by palpation on day 18 of the experiment.
In the case of appearance of additional tumors, the volumes were added.

[10] = test system: various human tumor cell lines; settings: nano- and picomolar concentrations; WO 2004/024149; cited from earlier work
[11] = test system: paclitaxel- and vindesine-resistant cell lines; settings: WO 2004/024149; cited from earlier work

C/C=C/C(O)C(C)(C(=O)OC)C1C\C=C/C=C/C=C/c2nc(co2)C(=O)OC(C(C)(C(=O)OC)C(/C=C/C)OC(=O)CCC(=O)NCCCC[C@H](NC(=O)[C@H](Cc2ccc(O)cc2)NC(=O)[C@H](CO)NC(=O)[C@H](Cc2c[nH]c3ccccc23)NC(=O)[C@H](Cc2cnc[nH]2)NC(=O)[C@@H]2CCC(=O)N2)C(=O)N[C@@H](CC(C)C)C(=O)N[C@@H](CCCNC(=N)N)C(=O)N2CCC[C@H]2C(=O)NCC(N)=O)C\C=C/C=C/C=C/c2nc(co2)C(=O)O1 (stereo partly drawn) [compound 16, Disorazole Z Mono Hemi Succinyl [D-Lys^6]LHRH]
proliferation status after 96 hours, cell line 5C6, 0.1 nM [1]: 83.8% | proliferation status after 96 hours, cell line 5C6, 1 nM [1]: 80.9% | proliferation status after 96 hours, cell line 5C6, 10 nM [1]: 54.1% | proliferation status after 96 hours, cell line 5C6, 100 nM [1]: 21.9% | proliferation status after 96 hours, cell line LTK−, 0.1 nM [2]: 101.8% | proliferation status after 96 hours, cell line LTK−, 1 nM [2]: 105.8% | proliferation status after 96 hours, cell line LTK−, 10 nM [2]: 103.4% | proliferation status after 96 hours, cell line LTK−, 100 nM [2]: 61.7% | IC50 NCI-H460 [3]: 9.235 ng/mL (≈ 4.43 nM) | IC50 SKOV-3 [4]: 7.683 ng/mL (≈ 3.69 nM) | IC50 RKOp27 [5]: 5.18 ng/mL (≈ 2.49 nM) | IC50 RKOp27 induced [6]: >3160 ng/mL | IC50 KB/HELA [7]: 18.92 ng/mL (≈ 9.09 nM) | IC50 SF-268 [8]: 17.8 ng/mL (≈ 8.55 nM) | Average tumor size day 18 ([9]; 0.1 mg/kg = 43 nmol/kg, day 18): 76 | Average tumor size day 0 ([9]; 0.1 mg/kg = 43 nmol/kg): 79 | Average tumor size day 18 ([9]; 0.5 mg/kg = 215 nmol/kg, day 18): 40 | Average tumor size day 0 ([9]; 0.5 mg/kg = 215 nmol/kg): 74

C/C=C/C(OC(=O)CCCC(=O)NCCCC[C@H](NC(=O)[C@H](Cc1ccc(O)cc1)NC(=O)[C@H](CO)NC(=O)[C@H](Cc1c[nH]c2ccccc12)NC(=O)[C@H](Cc1cnc[nH]1)NC(=O)[C@@H]1CCC(=O)N1)C(=O)N[C@@H](CC(C)C)C(=O)N[C@@H](CCCNC(=N)N)C(=O)N1CCC[C@H]1C(=O)NCC(N)=O)C(C)(C(=O)OC)C1C\C=C/C=C/C=C/c2nc(co2)C(=O)OC(C(C)(C(=O)OC)C(/C=C/C)OC(=O)CCCC(=O)NCCCC[C@H](NC(=O)[C@H](Cc2ccc(O)cc2)NC(=O)[C@H](CO)NC(=O)[C@H](Cc2c[nH]c3ccccc23)NC(=O)[C@H](Cc2cnc[nH]2)NC(=O)[C@@H]2CCC(=O)N2)C(=O)N[C@@H](CC(C)C)C(=O)N[C@@H](CCCNC(=N)N)C(=O)N2CCC[C@H]2C(=O)NCC(N)=O)C\C=C/C=C/C=C/c2nc(co2)C(=O)O1 (stereo partly drawn) [compound 17, Disorazole Z Bis Hemi Glutaryl [D-Lys^6]LHRH]
proliferation status after 96 hours, cell line 5C6, 0.1 nM [1]: 95.5% | proliferation status after 96 hours, cell line 5C6, 1 nM [1]: 85.9% | proliferation status after 96 hours, cell line 5C6, 10 nM [1]: 58.5% | proliferation status after 96 hours, cell line 5C6, 100 nM [1]: 41.7% | proliferation status after 96 hours, cell line LTK−, 0.1 nM [2]: 100.9% | proliferation status after 96 hours, cell line LTK−, 1 nM [2]: 99.8% | proliferation status after 96 hours, cell line LTK−, 10 nM [2]: 98.8% | proliferation status after 96 hours, cell line LTK−, 100 nM [2]: 98.0% | IC50 NCI-H460 [3]: >3160 ng/mL | IC50 SKOV-3 [4]: >3160 ng/mL | IC50 RKOp27 [5]: >3160 ng/mL | IC50 RKOp27 induced [6]: >3160 ng/mL | IC50 KB/HELA [7]: >3160 ng/mL | IC50 SF-268 [8]: >3160 ng/mL

C/C=C/C(O)C(C)(C)C1C/C=C\C2OC2C=CC(OC)Cc2nc(co2)C(=O)OC(C(C)(C)C(O)/C=C/C)C/C=C\C2OC2/C=C\C=Cc2nc(co2)C(=O)O1 (centres unmarked) [disorazol E1, disorazole E1, reference compound]
cytotoxic action on various human tumor cell lines [10]: possess cytotoxic action | activity against paclitaxel- and vindesine-resistant cell lines [11]: active | IC50 NCI-H460 [3]: 0.065 ng/mL (≈ 0.0839 nM) | IC50 SKOV-3 [4]: 0.074 ng/mL (≈ 0.0955 nM) | IC50 RKOp27 [5]: 0.17 ng/mL (≈ 0.219 nM) | IC50 RKOp27 induced [6]: >3160 ng/mL | IC50 KB/HELA [7]: 0.17 ng/mL (≈ 0.219 nM) | IC50 SF-268 [8]: 0.474 ng/mL (≈ 0.612 nM)

C/C=C/C(O)C(C)(C(=O)OC)C1C\C=C/C=C/C=C/c2nc(co2)C(=O)OC(C(C)(C(=O)OC)C(O)/C=C/C)C\C=C/C=C/C=C/c2nc(co2)C(=O)O1 (centres unmarked) [disorazol Z, disorazole Z, reference compound]
IC50 ([3]; Homo sapiens, NCI-H460, 45 h, read-out: IC50 NCI-H460): 0.67 ng/mL (≈ 0.897 nM) | IC50 ([4]; Homo sapiens, SK-OV-3, 45 h, read-out: IC50 SKOV-3): 0.504 ng/mL (≈ 0.675 nM) | IC50 ([5]; Homo sapiens, RKOp27, 45 h, read-out: IC50 RKOp27): 0.659 ng/mL (≈ 0.882 nM) | IC50 ([6]; Homo sapiens, RKOp27, 45 h, read-out: IC50 RKOp27 induced): > 3160 ng/mL | IC50 ([7]; Homo sapiens, HeLa, 45 h, read-out: IC50 KB/HELA): 1.01 ng/mL (≈ 1.35 nM) | IC50 ([8]; Homo sapiens, SF-268, 45 h, read-out: IC50 SF-268): 1.28 ng/mL (≈ 1.72 nM) | Average tumor size day 18 ([9]; 0.16 mg/kg = 215 nmol/kg, day 18): 146 | Average tumor size day 0 ([9]; 0.16 mg/kg = 215 nmol/kg): 92 | suppression of tumor growth (in words) ([9]; OVCAR-3 tumors, single i.v. dose, day 18): moderate suppression of tumor growth

disorazole D1
cytotoxic action on various human tumor cell lines [10]: possess cytotoxic action

Reference: patent publication US8470776B2, “Conjugates of disorazoles and their derivatives with cell-binding molecules, novel disorazole derivatives, processes of manufacturing and uses thereof” (Aeterna Zentaris GmbH, priority 2006, dated 2013)
